Results on 13 compounds are retold here after PubChem BioAssay (NCI).

Holding throughout (assay): NCI-60 cell line screen, 48 h
For assay [1], the system named is SNB-75 CNS.
In assay [2] the test system is OVCAR-5 ovarian.
Assay [3] concerns UACC-257 melanoma.
Assay [4] concerns SF-539 CNS.
Assay [5] deals with NCI-H522 lung.
Assay [6] deals with HL-60(TB) leukemia.
In assay [7] the test system is M14 melanoma.
Assay [8] relates to KM12 colon.
Assay [9] relates to UO-31 renal.
Assay [10] has as its system MOLT-4 leukemia.

“And” between values parts separate entries of the source, which are not always exact repeats. Equal values may be shown once.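 Values below derive from 48-hour exposures of cells grown in 96-well plates, with endpoints linearly interpolated between the two concentrations bracketing the appropriate inhibition level. At the GI50, growth is halved. The concentration for full growth arrest is given as TGI.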

In the case of `COc1ccc2c(c1)/C(=C\c1c(Cl)nc3n1CCS3)C(=O)N2`, the TGI in assay [1] is 36.5 µM; in assay [2], 74.1 µM; in assay [3], 25.8 µM; in [4], 24.9 µM; in [5] it was 24.4 µM; in assay [6], 17.2 µM. The TGI in assay [7] is above 100 µM; in [8], 23.2 µM; in assay [9] it was above 100 µM; in assay [10], above 100 µM.
For `Nc1cc(CO)cc(Nc2c3ccccc3nc3ccccc23)c1`, the TGI was 34.5 µM in assay [1]; 32.2 µM in assay [2]; 28.5 µM in [3]; 32 µM in [4]; 18.9 µM in assay [5]; above 100 µM in assay [6]. Further, the TGI is 31.3 µM in [7], 29.8 µM in assay [8], 32.3 µM in assay [9] and above 100 µM in [10].
As to `CC1=NNC(=O)C1C1(C(=O)O)CC(c2c[nH]c3ccccc23)=NC(=S)N1` (stereo unspecified), the TGI was 62.9 µM in [1]; above 100 µM in assay [2]; above 100 µM in assay [3]; 67.9 µM in [4]; 62.6 µM in assay [5]; 90.1 µM in assay [6]. For the same compound, the TGI in assay [7] was 37.9 µM; in assay [8], 36.9 µM; in assay [9], above 100 µM; in assay [10], 52.7 µM.
For `COc1cc(C[C@@]2(C)[C@@H]3CCC[C@H](CO)[C@@]3(C)CC[C@@H]2C)c(Cl)c(OC)c1`, the TGI in [1] came out at 31.9 µM; in [2], 32.9 µM; in assay [3] it was 35.2 µM; in assay [4], 29.4 µM; in assay [5], 28.9 µM; in assay [6] it was 47.3 µM. Besides, the TGI is 36.8 µM in [7], 37.8 µM in [8], 31.5 µM in assay [9] and 44.6 µM in assay [10].
Regarding `Cc1nc2c(Cl)cc(Cl)cc2c2c1CCO2`, the TGI in assay [1], in [2], in assay [3], in assay [4], in [5] and in assay [6] was above 100 µM in each case. The TGI in assay [7], in [8], in [9] and in [10] was above 100 µM in each case.
`Cc1cn(S(=O)(=O)c2ccccc2)c2c(OCc3ccccc3)cc([N+](=O)[O-])cc12`: the TGI in assay [1], in [2], in [3], in assay [4], in assay [5] and in assay [6] was above 100 µM in each case. Besides, the TGI in assay [7], in assay [8], in [9] and in [10] was above 100 µM each time.
As to `CC1OC(NCCNCCNC2OC(C)C(O)C(O)C2O)C(O)C(O)C1O` (stereo unspecified), the TGI in assay [1], in [2], in assay [3], in [4], in assay [5] and in [6] was above 100 µM throughout. Moreover, the TGI in [7], in assay [8], in assay [9] and in [10] was above 100 µM throughout.
As to `Nc1nnc(N)n1N`, the TGI in assay [1], in assay [2], in [3], in [4], in assay [5] and in [6] was above 100 µM throughout. Also, the TGI in [7], in assay [8], in assay [9] and in assay [10] was above 100 µM each time.
In the case of `CS(=O)(=O)OCCN(CCOS(C)(=O)=O)c1ccc(C=Nc2ccc(-c3csc(Cc4ccccc4)n3)cc2)c(Cl)c1`, the TGI in assay [1] was above 68.1 µM; in assay [2] it was 99.1 µM; in assay [3], 17.8 µM; in assay [4], above 59.6 µM; in assay [5] it was above 76 µM; in assay [6], 35.7 µM. Also, the TGI in [7] was above 62.7 µM; in assay [8], above 63.9 µM; in [9] it was above 85.8 µM; in [10] it was above 87.9 µM.
As for `COc1cc(/C=C/C(=O)CC(=O)/C=C/c2cc(C)c(O)c(OC)c2)cc(C)c1O`, the TGI in assay [1], in [2], in assay [3], in assay [4], in assay [5] and in assay [6] was above 100 µM throughout. Besides, the TGI in [7], in assay [8], in assay [9] and in assay [10] was above 100 µM each time.
As for `Nc1cc(C2CCCc3c2[nH]c2ccccc32)ccc1O` (stereo unspecified), the TGI is above 100 µM in assay [1]; above 100 µM in assay [2]; above 100 µM in assay [3]; above 100 µM in [4]; above 100 µM in assay [5]; 50.3 µM in assay [6]. Besides, the TGI in assay [7] is above 100 µM; in [8] it was above 100 µM; in assay [9], above 100 µM; in assay [10], 91.2 µM.
Regarding `Cc1ccc(C(=O)Nc2ccc(S(=O)(=O)O)c3cc(S(=O)(=O)O)cc(S(=O)(=O)O)c23)cc1NC(=O)c1cccc(NC(=O)Nc2cccc(C(=O)Nc3cc(C(=O)Nc4ccc(S(=O)(=O)O)c5cc(S(=O)(=O)O)cc(S(=O)(=O)O)c45)ccc3C)c2)c1`, the TGI in assay [1], in [2], in assay [3], in [4], in assay [5] and in assay [6] was above 100 µM each time. Also, the TGI is above 100 µM in assay [7], above 100 µM in [8], 87.3 µM in assay [9] and above 100 µM in assay [10].
For `CC(=O)OCC1OC(n2c(C)c(C)cc(C#N)c2=S)C(OC(C)=O)C(OC(C)=O)C1OC(C)=O` (stereo unspecified), the GI50 in [1] was 17 µM and > 100 µM. Besides, the TGI in [1], in [2], in assay [3], in assay [4], in assay [5] and in assay [6] was above 100 µM each time. Also, the TGI in [7], in assay [8], in assay [9] and in [10] was above 100 µM throughout.
